Test results published in publication PMC10033419, “Blocking NS3–NS4B interaction inhibits dengue virus in non-human primates” (Nature, 2023).
“And” between values parts separate entries of the source, which are not always exact repeats. Equal values may be shown once. Read-outs that look alike come from different tables or passages of the source.

How the values were obtained:
[1] = system: DENV-2 RL strain; test: Delayed-treatment study (therapeutic setting); format: in vivo, AG129 mice; details: for Viral Load Copies/ml / Viral Load Log10: 30 mg/kg/day, individual mice; for Viral (load), log10 of the column before (head empty) / Viral (load; head cut off): JNJ-1802 30 mg/kg
[2] = system: DENV-2 RL strain; test: Antiviral assay, viral RNA RT-qPCR, Vero cells; format: cell-based
[3] = system: HIV-1 IIIB; test: microbe, parasite or virus in culture; format: cell-based; details: Human immunodeficiency virus 1, IIIB, MAGI-CCR5
[4] = start treatment day 4 p.i., blood sampling day 5 p.i.
[5] = start treatment day 4 p.i., blood sampling day 6 p.i.
[6] = start treatment day 4 p.i., blood sampling day 7 p.i.
[7] = start treatment day 4 p.i., blood sampling day 8 p.i.
[8] = start treatment day 4 p.i., blood sampling day 9 p.i.
[9] = start treatment day 5 p.i., blood sampling day 3 p.i.
[10] = start treatment day 5 p.i., blood sampling day 4 p.i.
[11] = start treatment day 5 p.i., blood sampling day 5 p.i.
[12] = start treatment day 5 p.i., blood sampling day 6 p.i.
[13] = start treatment day 5 p.i., blood sampling day 7 p.i.
[14] = start treatment day 5 p.i., blood sampling day 8 p.i.
[15] = start treatment day 5 p.i., blood sampling day 9 p.i.
[16] = start treatment day 0 p.i., blood day 10, individual mice, 30 mg/kg
[17] = start treatment day 0 p.i., blood day 12, individual mice
[18] = start treatment day 0 p.i., blood day 14, individual mice, 30 mg/kg
[19] = start treatment day 4 p.i., blood day 10, individual mice, 30 mg/kg
[20] = start treatment day 4 p.i., blood day 12, individual mice
[21] = start treatment day 4 p.i., blood day 14, individual mice, 30 mg/kg
[22] = start treatment day 5 p.i., blood day 10, individual mice, 30 mg/kg
[23] = start treatment day 5 p.i., blood day 12, individual mice, 30 mg/kg
[24] = start treatment day 5 p.i., blood day 14, individual mice

In the case of `COc1cc(N[C@H](C(=O)c2c[nH]c3ccc(OC(F)(F)F)cc23)c2ccc(Cl)cc2OC)cc(S(C)(=O)=O)c1` [JNJ-1802], the “Viral Load Copies/ml” value [1, 4] is reported as 1.69E+05 Copies/ml and 1.30E+06 Copies/ml and 9.49E+05 Copies/ml and 2.98E+05 Copies/ml, the “Viral Load Log10” value [1, 4] is reported as 5.8093 Log10 and 5.2288 Log10 and 6.1145 Log10 and 5.9771 Log10 and 5.4737 Log10 and the “Viral Load Copies/ml” value [1, 5] is reported as 1.31E+03 Copies/ml and 2.07E+03 Copies/ml and 3.65E+04 Copies/ml and 6.54E+03 Copies/ml. For the same compound, the “Viral Load Log10” value [1, 5] was 4.0690 Log10 and 3.1169 Log10 and 3.3153 Log10 and 4.5619 Log10 and 3.8159 Log10, the “Viral Load Copies/ml” value [1, 6] was 1.31E+03 Copies/ml and 2.07E+03 Copies/ml and 4.29E+06 Copies/ml and 6.54E+03 Copies/ml and the “Viral Load Log10” value [1, 6] was 3.1169 Log10 and 3.3153 Log10 and 6.6320 Log10 and 3.8159 Log10. The “Viral Load Copies/ml” value [1, 7] was 1.31E+03 Copies/ml and 1.87E+03 Copies/ml, the “Viral Load Log10” value [1, 7] was 3.1169 Log10 and 3.2718 Log10 and the “Viral Load Copies/ml” value [1, 8] was 1.31E+03 Copies/ml. For the same compound, the “Viral Load Log10” value [1, 8] was 3.1169 Log10, the “Viral Load Copies/ml” value [1, 9] was 1.69E+06 Copies/ml and 8.64E+05 Copies/ml and the “Viral Load Log10” value [1, 9] was 6.8381 Log10 and 6.2281 Log10 and 5.9363 Log10. The “Viral Load Copies/ml” value [1, 10] was 1.81E+06 Copies/ml and 3.46E+06 Copies/ml and 7.59E+06 Copies/ml and 4.62E+06 Copies/ml, the “Viral Load Log10” value [1, 10] was 6.2566 Log10 and 6.5396 Log10 and 6.8802 Log10 and 6.6643 Log10 and the “Viral Load Copies/ml” value [1, 11] was 3.99E+07 Copies/ml and 1.36E+07 Copies/ml and 2.74E+07 Copies/ml and 2.11E+07 Copies/ml and 1.62E+07 Copies/ml. The “Viral Load Log10” value [1, 11] was 7.5974 Log10 and 7.1163 Log10 and 7.4220 Log10 and 7.3194 Log10 and 7.2021 Log10, the “Viral Load Copies/ml” value [1, 12] was 1.03E+06 Copies/ml and 1.20E+06 Copies/ml and 1.55E+06 Copies/ml and 4.56E+05 Copies/ml and the “Viral Load Log10” value [1, 12] was 6.0131 Log10 and 6.0795 Log10 and 6.1913 Log10 and 5.6591 Log10. The “Viral Load Copies/ml” value [1, 13] was 3.15E+05 Copies/ml, the “Viral Load Log10” value [1, 13] was 5.4984 Log10 and 4.8630 Log10 and the “Viral Load Copies/ml” value [1, 14] was 1.31E+03 Copies/ml and 1.96E+03 Copies/ml and 5.65E+04 Copies/ml. The “Viral Load Log10” value [1, 14] was 3.1169 Log10 and 3.2930 Log10 and 4.7518 Log10, the “Viral Load Copies/ml” value [1, 15] was 1.31E+03 Copies/ml and 1.37E+04 Copies/ml and the “Viral Load Log10” value [1, 15] was 3.1169 Log10 and 4.1354 Log10. The “time until viral loads below LLOQ” value ([1]; 60 mg/kg/day b.i.d., start day 4) was ≤ 48 h, the “Viral (load), log10 of the column before (head empty)” value (“Viral (load), log10” below) [1, 16] was 3.1169 and 3.2930 and the “Viral (load; head cut off)” value [1, 16] was 1.31E+03 and 1.96E+03. For the same compound, the “Viral (load), log10” value [1, 17] was 3.1169, the “Viral (load; head cut off)” value [1, 17] was 1.31E+03 and the “Viral (load), log10” value [1, 18] was 3.1169 and 3.6909. The “Viral (load; head cut off)” value [1, 18] was 1.31E+03 and 1.57E+03 and 4.91E+03, the “Viral (load), log10” value [1, 19] was 3.1468 and 3.2930 and 3.1169 and the “Viral (load; head cut off)” value [1, 19] was 1.40E+03 and 1.96E+03 and 1.64E+03 and 1.31E+03. For the same compound, the “Viral (load), log10” value [1, 20] was 3.1169, the “Viral (load; head cut off)” value [1, 20] was 1.31E+03 and the “Viral (load), log10” value [1, 21] was 3.1169. For the same compound, the “Viral (load; head cut off)” value [1, 21] was 1.31E+03 and 1.57E+03, the “Viral (load), log10” value [1, 22] was 4.0084 and 3.1169 and the “Viral (load; head cut off)” value [1, 22] was 1.02E+04 and 1.31E+03. For the same compound, the “Viral (load), log10” value [1, 23] was 3.1169 and 4.0709, the “Viral (load; head cut off)” value [1, 23] was 1.31E+03 and 1.18E+04 and the “Viral (load), log10” value [1, 24] was 3.1169. The “Viral (load; head cut off)” value [1, 24] was 1.31E+03, the EC90 ([2]; Dengue virus, DENV2, Vero, Vero) was 0.275 ± 0.081 nM and the EC50 ([2]; Dengue virus, DENV2, Vero, Vero cells, DENV-2RL, EXP1-EXP3, read-out: EC50, single experiments) was 0.041 nM. It also gave an EC90 ([2]; Dengue virus, DENV2, Vero, Vero cells, DENV-2RL, EXP1-EXP3, read-out: EC90, single experiments) of 0.19 nM, an EC50 ([2]; Dengue virus, DENV2, Vero, Vero cells, DENV-2RL, median, read-out: EC50 MEDIAN) of 0.068 nM and an EC90 ([2]; Dengue virus, DENV2, Vero, Vero cells, DENV-2RL, median, read-out: EC90 MEDIAN) of 0.29 nM. The EC50 ([2]; Dengue virus, DENV2, Vero, Vero, read-out: EC50) was 0.062 ± 0.019 nM, the EC50 ([2]; Vero cells, DENV-2RL, EXP1-EXP3, read-out: EC50, single experiments) was 0.077 nM and the EC90 ([2]; Vero cells, DENV-2RL, EXP1-EXP3, read-out: EC90, single experiments) was 0.35 nM. The EC50 [3] was 1600 nM.
